The source of these data is US6334995B1, “Process for the preparation of technetium-99m diethylene triamine penta-acetic acid diester” (Council of Scientific & Industrial Research, priority 1998, dated 2002).

Data set [1] is described as follows: Comparative biodistribution in rats. The format is in vivo. Particulars: for hepatobiliary accumulation: conclusion from biodistribution in rats or mice or scintigraphic experiments on dog; for Blood, percent dose per organ / Intestine, percent dose per organ / Kidney, percent dose per organ / Liver, percent dose per organ / Urine, percent dose per organ: rat. The protocol:
(§1) Biological evaluation of technetium-99m diethylenie triamine pentaacetic acid diester by comparative biodistribution with iodine-131 orthoiodo-hippurate and technetium-99m mercaptoacetylglycylglycylglyciine.
(§2) The comparative biodistribution experiment was undertaken in mice and rats. In mice either technetium-99m diethylene triamine pentaacetic acid diester or technetium-99m mercaptoacetylglycylglycylglycine were injected via the tail vein along with iodine-131 orthoiodo-hippurate. Rats were anaesthetised with urethane and the above radiochemicals were injected via the femoral vein. After predetermined time interval the animals were sacrificed and the organs were taken in the counting vial. Considerable care were exercised not to loose any urine during the process.

Data set [2] can be described thus: Comparative biodistribution in mice. Format: in vivo. On the procedure:
as §1, §2

A short description of data set [3]: Renal plasma clearance in rats, single injection method. Format: in vivo. The following applies: plasma samples at 20 and 30 min, single compartment model. On the procedure: (§3) Renal plasma clearance of technetium-99m diethylene triamine pentaacetic acid dimethyl ester was studied in rats by single injection method. Two plasma samples were collected at 20 and 30 min time point. The clearance was calculated using a single compartment model. Iodine-131 orthoiodo-hippurate was coinjected as standard. This experiment was also performed with technetium-99m mercaptoacetylglycylglycylglycine. […] The corresponding values in dog (10-12 kg) for technetiumn-99m diethylene triamine pentaacetic acid dimethyl ester and technetium-99m mercaptoacetylglycylglycylglycine along with coinjected hippurate were 72, 80 and 157 ml/min. These values are much higher than technetium-99m diethylene triamine pentaacetic acid in rats (0.82 ml/min 100 g) or dogs (43 ml/min).

The format of data set [4] is in vivo. Particulars: dog (10-12 kg). The protocol: as §3
The conditions of data set [5]: background statement; cited from earlier work.
For data set [6] the following is noted: background statement; cited from earlier work. The source holds these as a separate data set.
The conditions of data set [7]: cited from earlier work; for Renal extraction: background comparison of MAG3 with iodine-131 orthoiodo-hippurate; for extraction efficiency: background statement.

Where two headings read alike, the source gives them in different places.

As to “technetium-99m diethylene triamine pentaacetic acid dimethyl ester [compound 2]”, in data set [1], the hepatobiliary accumulation entry is given as “no hepatobiliary accumulation”. Also, in data set [1] (10 min post-injection), the “Blood, percent dose per organ” value came to 8.26 ± 0.75 percent dose per organ; the “Intestine, percent dose per organ” value stood at 2.19 ± 0.41 percent dose per organ; the “Kidney, percent dose per organ” value was found to be 3.21 ± 0.29 percent dose per organ; the “Liver, percent dose per organ” value is reported as 2.14 ± 0.41 percent dose per organ. In addition, the “Urine, percent dose per organ” value in data set [1] (10 min post-injection) is reported as 30.94 ± 3.40 percent dose per organ. Further, in data set [1] (30 min post-injection), the “Blood, percent dose per organ” value stood at 3.49 ± 0.36 percent dose per organ; the “Intestine, percent dose per organ” value was 1.53 ± 0.10 percent dose per organ; the “Kidney, percent dose per organ” value worked out at 1.47 ± 0.41 percent dose per organ; the “Liver, percent dose per organ” value is 0.91 ± 0.03 percent dose per organ. Moreover, in data set [1] (30 min post-injection), the “Urine, percent dose per organ” value was determined as 64.20 percent dose per organ. In data set [2] (10 min post-injection), the “Blood, percent dose per organ” value came out at 7.27 ± 2.41 percent dose per organ; the “Intestine, percent dose per organ” value amounted to 3.40 ± 0.25 percent dose per organ; the “Kidney, percent dose per organ” value was 3.36 ± 0.98 percent dose per organ; the “Liver, percent dose per organ” value amounted to 1.65 ± 0.11 percent dose per organ. Also, the “Urine, percent dose per organ” value in data set [2] (10 min post-injection) came out at 46.39 ± 3.67 percent dose per organ. In data set [2] (30 min post-injection), the “Blood, percent dose per organ” value is on record as 1.51 ± 0.53 percent dose per organ; the “Intestine, percent dose per organ” value is reported as 1.67 ± 0.91 percent dose per organ; the “Kidney, percent dose per organ” value turned out to be 1.28 ± 0.52 percent dose per organ; the “Liver, percent dose per organ” value is recorded as 1.22 ± 0.25 percent dose per organ. The “Urine, percent dose per organ” value in data set [2] (30 min post-injection) is recorded as 73.23 percent dose per organ. This molecule also yielded a Renal plasma clearance in data set [3] of 1.39 ml/min/100 g. Besides, the Renal plasma clearance in data set [4] was found to be 72 mL/min.
As for “technetium-99m mercaptoacetylglycylglycylglycine [compound 3]”, the hepatobiliary accumulation result in data set [1] is “appreciable amount”. In addition, the “Blood, percent dose per organ” value in data set [1] (10 min post-injection) came to 4.22 ± 0.40 percent dose per organ; in data set [1] (30 min post-injection), 2.31 ± 0.24 percent dose per organ; in data set [2] (10 min post-injection), 6.60 ± 2.37 percent dose per organ; in data set [2] (30 min post-injection), 1.23 ± 0.26 percent dose per organ. The “Intestine, percent dose per organ” value is recorded as 4.94 ± 1.39 percent dose per organ in data set [1] (10 min post-injection), 10.12 ± 0.88 percent dose per organ in data set [1] (30 min post-injection), 3.31 ± 0.40 percent dose per organ in data set [2] (10 min post-injection) and 5.82 ± 0.60 percent dose per organ in data set [2] (30 min post-injection). For the same molecule, the “Kidney, percent dose per organ” value turned out to be 8.51 ± 1.54 percent dose per organ in data set [1] (10 min post-injection), 2.99 ± 0.96 percent dose per organ in data set [1] (30 min post-injection), 4.32 ± 0.15 percent dose per organ in data set [2] (10 min post-injection) and 1.12 ± 0.25 percent dose per organ in data set [2] (30 min post-injection). The “Liver, percent dose per organ” value in data set [1] (10 min post-injection) stood at 3.37 ± 0.76 percent dose per organ; in data set [1] (30 min post-injection), 4.48 ± 1.48 percent dose per organ; in data set [2] (10 min post-injection), 7.07 ± 0.82 percent dose per organ; in data set [2] (30 min post-injection) it was 4.36 ± 0.43 percent dose per organ. Besides, the “Urine, percent dose per organ” value came out at 33.15 ± 6.30 percent dose per organ in data set [1] (10 min post-injection), 63.50 percent dose per organ in data set [1] (30 min post-injection), 48.34 ± 2.36 percent dose per organ in data set [2] (10 min post-injection) and 70.99 percent dose per organ in data set [2] (30 min post-injection). The “accumulation in hepatobiliary system” value in data set [5] is reported as “Unwanted accumulation in hepatobiliary system is observed”. Moreover, the protein binding in data set [6] is 77%. Further, the Renal plasma clearance in data set [3] was 1.45 ml/min/100 g; in data set [4], 80 mL/min. Moreover, the Renal extraction in data set [7] is given as 53%.
Consider `O=C(O)CNC(=O)c1ccccc1I` [Orthoiodo-hippurate], for which, in data set [7], the extraction efficiency was 87%.
On to `O=C(O)CNC(=O)c1ccccc1[131I]` [compound 1, Iodine-131 orthoiodo-hippurate], for which, in data set [1] (10 min post-injection), the “Blood, percent dose per organ” value is recorded as 5.61 ± 0.87 percent dose per organ; the “Intestine, percent dose per organ” value is on record as 2.12 ± 0.41 percent dose per organ; the “Kidney, percent dose per organ” value turned out to be 3.72 ± 0.77 percent dose per organ; the “Liver, percent dose per organ” value turned out to be 3.29 ± 1.14 percent dose per organ. In addition, in data set [1] (10 min post-injection), the “Urine, percent dose per organ” value is 48.92 ± 1.54 percent dose per organ. In addition, in data set [1] (30 min post-injection), the “Blood, percent dose per organ” value was 1.47 ± 0.28 percent dose per organ; the “Intestine, percent dose per organ” value is recorded as 1.92 ± 0.39 percent dose per organ; the “Kidney, percent dose per organ” value worked out at 0.94 ± 0.20 percent dose per organ; the “Liver, percent dose per organ” value worked out at 0.80 ± 0.12 percent dose per organ. The “Urine, percent dose per organ” value in data set [1] (30 min post-injection) turned out to be 79.80 percent dose per organ. Also, in data set [6], the protein binding was 32%. Moreover, in data set [2] (10 min post-injection), the “Blood, percent dose per organ” value came out at 3.00 ± 1.29 percent dose per organ; the “Intestine, percent dose per organ” value was determined as 2.16 ± 0.28 percent dose per organ; the “Kidney, percent dose per organ” value worked out at 2.57 ± 1.05 percent dose per organ; the “Liver, percent dose per organ” value is 2.47 ± 0.26 percent dose per organ. In addition, the “Urine, percent dose per organ” value in data set [2] (10 min post-injection) came out at 64.85 ± 2.74 percent dose per organ. In addition, in data set [2] (30 min post-injection), the “Blood, percent dose per organ” value is given as 1.41 ± 0.72 percent dose per organ; the “Intestine, percent dose per organ” value is 1.21 ± 0.47 percent dose per organ; the “Kidney, percent dose per organ” value is on record as 0.59 ± 0.30 percent dose per organ; the “Liver, percent dose per organ” value came out at 0.90 ± 0.14 percent dose per organ. Also, the “Urine, percent dose per organ” value in data set [2] (30 min post-injection) came to 80.38 percent dose per organ. Also, the Renal plasma clearance in data set [3] came to 2.68 ml/min/100 g. Besides, the Renal plasma clearance in data set [4] came to 157 mL/min. For the same molecule, in data set [7], the Renal extraction is 79%.
Take “Technetium-99m diethylene triamine pentaacetic acid [compound 4]”: the “Blood, percent dose per organ” value in data set [1] (10 min post-injection) amounted to 19.06 ± 2.37 percent dose per organ; in data set [1] (30 min post-injection), 7.08 ± 1.50 percent dose per organ; in data set [2] (10 min post-injection) it was 14.66 ± 3.33 percent dose per organ; in data set [2] (30 min post-injection), 5.55 ± 1.22 percent dose per organ. Besides, the “Intestine, percent dose per organ” value in data set [1] (10 min post-injection) is recorded as 3.65 ± 2.05 percent dose per organ; in data set [1] (30 min post-injection), 6.43 ± 1.42 percent dose per organ; in data set [2] (10 min post-injection) it was 2.71 ± 0.20 percent dose per organ; in data set [2] (30 min post-injection), 3.12 ± 0.85 percent dose per organ. The “Kidney, percent dose per organ” value in data set [1] (10 min post-injection) is 5.13 ± 1.00 percent dose per organ; in data set [1] (30 min post-injection), 2.78 ± 1.00 percent dose per organ; in data set [2] (10 min post-injection), 2.57 ± 0.30 percent dose per organ; in data set [2] (30 min post-injection), 1.08 ± 0.03 percent dose per organ. Moreover, the “Liver, percent dose per organ” value in data set [1] (10 min post-injection) is on record as 4.91 ± 1.18 percent dose per organ; in data set [1] (30 min post-injection), 3.30 ± 0.79 percent dose per organ; in data set [2] (10 min post-injection), 2.57 ± 0.47 percent dose per organ; in data set [2] (30 min post-injection) it was 1.02 ± 0.30 percent dose per organ. In addition, the “Urine, percent dose per organ” value in data set [1] (10 min post-injection) came out at 21.23 ± 1.61 percent dose per organ; in data set [1] (30 min post-injection), 43.32 percent dose per organ; in data set [2] (10 min post-injection) it was 35.48 ± 2.92 percent dose per organ; in data set [2] (30 min post-injection), 60.15 percent dose per organ. For the same molecule, the Renal plasma clearance in data set [3] came out at 0.82 ml/min/100 g; in data set [4] it was 43 mL/min. In data set [7], the extraction efficiency was 20%.
